This assay concerns Human immunodeficiency virus 1. The assay can be described thus: Ability of the conjugate to block HIV-1 production when supplemented in a culture medium; NI= No inhibition of the HIV-1 replication even at concentration >5 uM. The assay is classed as functional, organism-based.

Consider `NC[C@H]1O[C@H](O[C@H]2[C@H](O)[C@@H](O)[C@H](N)C[C@@H]2N)[C@H](N)[C@@H](O)[C@@H]1O`, for which the inhibition entry is “No inhibition”.

Values taken from ChEMBL document CHEMBL1138755, “A peptide nucleic acid-neamine conjugate that targets and cleaves HIV-1 TAR RNA inhibits viral replication” (J Med Chem, 2004).
